Experimental data published in US9255090B2, “Heterocyclyl derivatives and their use as prostaglandin D2 receptor modulators” (Actelion Pharmaceuticals Ltd., priority 2012, dated 2016).

Tests used:
hCRTH2 receptor = hCRTH2 receptor (Homo sapiens (Human), UniProt Q9Y5Y4); experiment: hCRTH2 receptor membranes radioligand (3H-PGD2) displacement assay; format: binding; details: 3H-PGD2 radioligand displacement, HEK293-hCRTH2 membranes
Method in brief: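 Compound was first mixed with buffer, then 3H-PGD2 was added at 2.5 nM, and the reaction was started with hCRTH2 membranes from HEK293 cells at 20 μg/well. After 90 min at room temperature, mixtures were filtered and washed with ice-cold buffer, and retained radioactivity was counted.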

eosinophils = experiment: Eosinophil shape change assay with human plasma; format: cell-based; details: Homo sapiens, Eosinophil, human plasma (50%), PGD2 100 nM activation, antagonistic activity
Description: Eosinophil Shape Change Assay with Human Plasma
After obtaining informed consent, blood samples were drawn by venipuncture according to the protocol approved by the ethics committee of Basel, Switzerland. Polymorphonuclear leukocytes (containing eosinophils, basophils and neutrophils) were isolated using the Polymorphprep™ method (Axis-Shield). […] The polymorphonuclear cell fraction was harvested and depleted for erythrocytes by hypotonic saline lysis.
The polymorphonuclear cells were resuspended in assay buffer (1×PBS with Ca^2+/Mg^2+ supplemented with 0.1% BSA, 10 mM HEPES, and 10 mM Glucose, pH 7.4) at 5×10^6 cells/ml and stained with anti-CD49d-APC ((APC=Allophycocyanin) for 1 hour at RT. Test compounds, at various concentrations, were preincubated 10 min in human plasma (anticoagulated with a thrombin inhibitor). Then, human plasma was added to the polymorphonuclear cells to 50% of final assay volume with polymorphonuclear cells at 4×10^6 cells/ml. After incubation for 10 minutes at 37° C., the polymorphonuclear cells were activated for 5 min at 37° C. by addition of PGD2 at 100 nM final concentration. Activation was stopped by addition of 0.5 ml paraformaldehyde (1%).
Immediately after fixation with paraformaldehyde, the samples were analyzed by FACSCanto flow cytometer (BD Biosciences) and target cells were identified by their forward-scatter (FSC) and side-scatter (SSC) characteristics. Eosinophils were identified by the anti-CD49d-APC signal and their characteristic side-scatter (SSC) profile. Shape change responses, indicative of eosinophil activation, were quantified as the percent of cells with an increased forward-scatter.

hCRTH2 receptor, sequence (Q9Y5Y4 whole entry): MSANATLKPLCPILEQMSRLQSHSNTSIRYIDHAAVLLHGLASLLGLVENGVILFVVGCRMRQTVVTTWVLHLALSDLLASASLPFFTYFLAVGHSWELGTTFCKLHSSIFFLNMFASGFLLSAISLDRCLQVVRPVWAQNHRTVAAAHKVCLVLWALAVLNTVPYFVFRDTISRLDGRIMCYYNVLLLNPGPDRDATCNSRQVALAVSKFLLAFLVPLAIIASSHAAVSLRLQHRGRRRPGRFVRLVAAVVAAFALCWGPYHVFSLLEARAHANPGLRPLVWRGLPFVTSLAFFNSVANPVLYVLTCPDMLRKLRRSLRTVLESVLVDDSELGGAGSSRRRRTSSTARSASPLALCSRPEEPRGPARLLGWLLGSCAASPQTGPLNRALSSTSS

IC50 (hCRTH2 receptor) [nM] | IC50 (eosinophils) [nM] | SMILES
0.9 | 26 | CCOc1ccc(CC(=O)O)cc1-c1ccc(F)c2c1CN(C(=O)CC1CCOc3cc(F)ccc31)CC2 (racemic) [Example 335]
0.9 | 51 | CCOc1cc(CC(=O)O)ccc1-c1ccc(F)c2c1CN(C(=O)CC(C)c1ccccn1)CC2 (racemic) [Example 344]
3.1 | 26 | CCOc1ccc(CC(=O)O)cc1-c1ccc(F)c2c1CN(C(=O)C(C)Cc1ccccn1)CC2 (racemic) [Example 351]
6.1 | 30 | COc1cc(CC(=O)O)ccc1-c1ccc(F)c2c1CN(C(=O)CC1CCc3ccccc31)CC2 (racemic) [Example 360]
10 | 42 | O=C(O)Cc1ccc(Cl)c(-c2ccc(F)c3c2CN(C(=O)[C@@H]2C[C@H]2c2ccccc2)CC3)c1 [Example 28, {4-Chloro-3-[5-fluoro-2-((1R,2R)-2-phenyl-cyclopropanecarbonyl)-1,2,3,4-tetrahydro-isoquinolin-8-yl]-phenyl}-acetic acid]
12 | 436 | COc1ccc(CC(=O)O)cc1-c1cc(F)c(F)c2c1CN(C(=O)OCc1ccccc1)CC2 [Example 31, 8-(5-Carboxymethyl-2-methoxy-phenyl)-5,6-difluoro-3,4-dihydro-1H-isoquinoline-2-carboxylic acid benzyl ester]
5.89 | 404 | COc1ccc(CC(=O)O)cc1-c1c(F)cc(F)c2c1CN(C(=O)OCc1ccccc1)CC2 [Example 39, 8-(5-Carboxymethyl-2-methoxy-phenyl)-5,7-difluoro-3,4-dihydro-1H-isoquinoline-2-carboxylic acid benzyl ester]
8.76 | 118 | COc1ccc(CC(=O)O)cc1-c1ccc(F)c2c1CN(C(=O)CCOc1ccc(F)cc1)CC2 [Example 42, (3-{5-Fluoro-2-[3-(4-fluoro-phenoxy)-propionyl]-1,2,3,4-tetrahydro-isoquinolin-8-yl}-4-methoxy-phenyl)-acetic acid]
2.9 | 64 | COc1ccc(CC(=O)O)cc1-c1ccc(F)c2c1CN(C(=O)CCCc1ccccc1F)CC2 [Example 45, (3-{5-Fluoro-2-[4-(2-fluoro-phenyl)-butyryl]-1,2,3,4-tetrahydro-isoquinolin-8-yl}-4-methoxy-phenyl)-acetic acid]
3.57 | 122 | COc1ccc(CC(=O)O)cc1-c1ccc(F)c2c1CN(C(=O)COCc1ccccc1Cl)CC2 [Example 58, (3-{2-[2-(2-Chloro-benzyloxy)-acetyl]-5-fluoro-1,2,3,4-tetrahydro-isoquinolin-8-yl}-4-methoxy-phenyl)-acetic acid]
7.4 | 182 | COc1ccc(CC(=O)O)cc1-c1ccc(F)c2c1CN(C(=O)CCN1CCc3ccccc31)CC2 [Example 59, {3-[2-(3-2,3-Dihydro-indol-1-yl-propionyl)-5-fluoro-1,2,3,4-tetrahydro-isoquinolin-8-yl]-4-methoxy-phenyl}-acetic acid]
4.74 | 106 | COc1ccc(CC(=O)O)cc1-c1ccc(F)c2c1CN(C(=O)CCc1cn(C)c3ccccc13)CC2 [Example 62, (3-{5-Fluoro-2-[3-(1-methyl-1H-indol-3-yl)-propionyl]-1,2,3,4-tetrahydro-isoquinolin-8-yl}-4-methoxy-phenyl)-acetic acid]
4.82 | 5 | COc1ccc(CC(=O)O)cc1-c1cc(F)c(F)c2c1CN(C(=O)[C@@H]1C[C@H]1c1ccccc1)CC2 [Example 84, {3-[5,6-Difluoro-2-((1R,2R)-2-phenyl-cyclopropanecarbonyl)-1,2,3,4-tetrahydro-isoquinolin-8-yl]-4-methoxy-phenyl}-acetic acid]
16.3 | 113 | COc1ccc(CC(=O)O)cc1-c1ccc(F)c2c1CN(C(=O)CCn1nc(C)c3ccccc31)CC2 [Example 125, (3-{5-Fluoro-2-[3-(3-methyl-indazol-1-yl)-propionyl]-1,2,3,4-tetrahydro-isoquinolin-8-yl}-4-methoxy-phenyl)-acetic acid]

Second part, the compound before the results:

SMILES | IC50 (hCRTH2 receptor) [nM] | IC50 (eosinophils) [nM]
CCOc1ccc(CC(=O)O)cc1-c1ccc(F)c2c1CN(C(=O)CC(C)c1ccccn1)CC2 (racemic) [Example 345] | 4.8 | 31
CCOc1ccc(CC(=O)O)cc1-c1ccc(F)c2c1CN(C(=O)CC1CCCc3cccnc31)CC2 (racemic) [Example 350] | 8.2 | 9
CCOc1cc(CC(=O)O)ccc1-c1ccc(F)c2c1CN(C(=O)C(C)Cc1ccccn1)CC2 (racemic) [Example 352] | 8.1 | 103
O=C(O)Cc1ccc(OC(F)(F)F)c(-c2ccc(F)c3c2CN(C(=O)OCc2ccccc2)CC3)c1 [Example 21, 8-(5-Carboxymethyl-2-trifluoromethoxy-phenyl)-5-fluoro-3,4-dihydro-1H-isoquinoline-2-carboxylic acid benzyl ester] | 2.19 | 64
CC(C)Oc1ccc(CC(=O)O)cc1-c1ccc(F)c2c1CN(C(=O)OCc1ccccc1)CC2 [Example 22, 8-(5-Carboxymethyl-2-isopropoxy-phenyl)-5-fluoro-3,4-dihydro-1H-isoquinoline-2-carboxylic acid benzyl ester] | 4.72 | 38
CS(=O)(=O)c1ccc(CC(=O)O)cc1-c1ccc(F)c2c1CN(C(=O)[C@@H]1C[C@H]1c1ccccc1)CC2 [Example 29, {3-[5-Fluoro-2-((1R,2R)-2-phenyl-cyclopropanecarbonyl)-1,2,3,4-tetrahydro-isoquinolin-8-yl]-4-methanesulfonyl-phenyl}-acetic acid] | 6.6 | 20
COc1ccc(CC(=O)O)cc1-c1cc(F)cc2c1CN(C(=O)OCc1ccccc1)CC2 [Example 32, 8-(5-Carboxymethyl-2-methoxy-phenyl)-6-fluoro-3,4-dihydro-1H-isoquinoline-2-carboxylic acid benzyl ester] | 10.5 | 356
COc1ccc(CC(=O)O)cc1-c1cc(F)cc2c1CN(C(=O)[C@@H]1C[C@H]1c1ccccc1)CC2 [Example 34, {3-[6-Fluoro-2-((1R,2R)-2-phenyl-cyclopropanecarbonyl)-1,2,3,4-tetrahydro-isoquinolin-8-yl]-4-methoxy-phenyl}-acetic acid] | 2.7 | 25
COc1ccc(CC(=O)O)cc1-c1ccc(F)c2c1CN(C(=O)CCc1ccccc1)CC2 [Example 54, {3-[5-Fluoro-2-(3-phenyl-propionyl)-1,2,3,4-tetrahydro-isoquinolin-8-yl]-4-methoxy-phenyl}-acetic acid] | 5.83 | 184
COc1ccc(CC(=O)O)cc1-c1ccc(F)c2c1CN(C(=O)CCc1c(C)[nH]c3ccccc13)CC2 [Example 61, (3-{5-Fluoro-2-[3-(2-methyl-1H-indol-3-yl)-propionyl]-1,2,3,4-tetrahydro-isoquinolin-8-yl}-4-methoxy-phenyl)-acetic acid] | 8 | 52
COc1ccc(CC(=O)O)cc1-c1ccc(Cl)c2c1CN(C(=O)[C@@H]1C[C@H]1c1cccc(F)c1)CC2 [Example 69, (3-{5-Chloro-2-[(1R,2R)-2-(3-fluoro-phenyl)-cyclopropanecarbonyl]-1,2,3,4-tetrahydro-isoquinolin-8-yl}-4-methoxy-phenyl)-acetic acid] | 9.58 | 78
COc1ccc(CC(=O)O)cc1-c1ccc(Cl)c2c1CN(C(=O)[C@@H]1C[C@H]1c1ccccc1)CC2 [Example 71, {3-[5-Chloro-2-((1R,2R)-2-phenyl-cyclopropanecarbonyl)-1,2,3,4-tetrahydro-isoquinolin-8-yl]-4-methoxy-phenyl}-acetic acid] | 1.68 | 22
COc1ccc(CC(=O)O)cc1-c1ccc(F)c2c1CN(C(=O)[C@@H]1C[C@H]1c1ccccc1)CC2 [Example 80, {3-[5-Fluoro-2-((1R,2R)-2-phenyl-cyclopropanecarbonyl)-1,2,3,4-tetrahydro-isoquinolin-8-yl]-4-methoxy-phenyl}-acetic acid] | 1.89 | 4.7
COc1ccc(CC(=O)O)cc1-c1ccc(F)c2c1CN(C(=O)C[C@@H](C)c1ccccc1)CC2 [Example 106, {3-[5-Fluoro-2-((R)-3-phenyl-butyryl)-1,2,3,4-tetrahydro-isoquinolin-8-yl]-4-methoxy-phenyl}-acetic acid] | 10.4 | 37
COc1ccc(CC(=O)O)cc1-c1ccc(F)c2c1CN(C(=O)CC(C)(C)c1ccccc1)CC2 [Example 108, {3-[5-Fluoro-2-(3-methyl-3-phenyl-butyryl)-1,2,3,4-tetrahydro-isoquinolin-8-yl]-4-methoxy-phenyl}-acetic acid] | 10.1 | 92
